According to article PMC5732813, “Novel piplartine-containing ruthenium complexes: synthesis, cell growth inhibition, apoptosis induction and ROS production on HCT116 cells” (Oncotarget, 2017):
Several values for one entry are separate records, joined by “and”; a condition that tells them apart may be missing. Identical values can stand only once.

Legend:
[1] = tested on: cancer multicellular spheroids formed from HCT116 cells; assay: 3D multicellular spheroids culture, alamar blue assay; format: cell-based, human
Protocol: Cell viability was quantified using the alamar blue assay, according to Ahmed et al.. Cells were inserted in 96-well plates for all experiments (7 x 10^4 cells/mL for adherent cells or 3 x 10^5 cells/mL for suspended cells in 100 μL of medium). […] Negative controls received the vehicle that was used for diluting the compounds tested.
HCT116 cells were cultivated in 3D multicellular spheroids. Briefly, 100 μL of a solution of cells (0.5 x 10^6 cells/mL) were inserted in 96-well plate with a cell-repellent surface (Greiner Bio-One, Kremsmünster, Austria) and cultured in RPMI 1640 medium with 10% fetal bovine serum, 2 mM glutamine, 3% matrigel (BD Biosciences, San Jose, CA, EUA) and 50 μg/mL gentamycin at 37°C with 5% CO2. […] Negative control received the vehicle that was used for diluting the compounds tested. In the end of the experiment, morphological changes were examined by light microscopy (Olympus BX41, Tokyo, Japan) using Image-Pro software (Media Cybernetics, Inc. Silver Spring, USA) and the cell viability was determined by alamar blue assay as described above.

[2] = tested on: HCT116 cells; assay: Internucleosomal DNA fragmentation and cell cycle distribution (DNA content, flow cytometry); format: cell-based, human
Protocol: Cells were harvested in a permeabilization solution containing 0.1% triton X-100 (Sigma Chemical Co. St Louis, MO, USA), 2 μg/mL propidium iodide (Sigma Chemical Co. St Louis, MO, USA), 0.1% sodium citrate and 100 μg/mL RNAse (Sigma Chemical Co. St Louis, MO, USA) and incubated in the dark for 15 min at room temperature.

[3] = tested on: HCT116 cells; assay: Gene expression analysis by qPCR array (TaqMan Array Human Molecular Mechanisms of Cancer); format: cell-based; details: HCT116, 12 h; DOX 1 μM, PL 10 μM, 1 2.5 μM, 2 5 μM; negative control RQ = 1.0
Protocol: HCT116 cells were plated in bottles tissue culture (7x10^4 cells/mL). After 12h of incubation with the complexes, total RNA was isolated from the cells using the RNeasy Plus mini kit (Qiagen, Hilden, Germany) according to the manufacturer’s instructions. The RNA was evaluated by fluorimetry (QuBit™, Life Technologies, Camarillo, CA, EUA). RNA reverse transcription was performed using Superscript VILO™ (Invitrogen Corporation, Waltham, MA, USA). A 96-well plate TaqMan® Array Human Molecular Mechanisms of Cancer (ID 4418806, Applied Biosystems™, Foster City, CA, EUA) was used for the gene expression study by qPCR. The reactions were conducted in the ABI ViiA7 (Applied Biosystems™, Foster City, CA, EUA). The cycle conditions comprised 2 min at 50 °C, 20 s at 95 °C, then 40 cycles of 3 s at 95 °C and 30 s at 60 °C. […] The GAPDH, 18S and HPRT1 genes were used for normalization. All experiments were performed in DNase/RNase free conditions.

## [Ru(piplartine)(dppf)(bipy)](PF6)2 [Complex 1]
[1]; 3D spheroids of HCT116, 72 h treatment, alamar blue, read-out: IC50
  IC50: 7.3 µM
[1]; 3D spheroids of HCT116, IC50 72 h
  more potent than metal-free piplartine: approximately 3 fold
[2]
  DNA content (%) G0/G1: 28.6 ± 5.9% and 39.4 ± 1.8% and 30.0 ± 5.8 % and 42.5 ± 1.7%
  DNA content (%) S: 11.5 ± 2.5% and 20.1 ± 1.4% and 13.5 ± 1.5% and 21.9 ± 2.5%
[3]
  RQ ABL1: 1.302
  RQ AKT1: 1.469
  RQ AKT2: 1.663
  RQ APC: 0.972
  RQ BAX: 1.572
  RQ BCAR1: 1.687
  RQ BCL2: 2.4 and 2.367
  RQ BCL2L1: 1.936
  RQ BCL2L11: 1.710
  RQ BID: 0.743
  RQ BRAF: 1.072
  RQ CASP8: 1.583
  RQ CCND1: 1.2 and 1.153
  RQ CCND3: 1.447
  RQ CCNE1: 1.075
  RQ CDC42: 1.755
  RQ CDH1: 3.7 and 3.659
  RQ CDK2: 1.467
  RQ CDK4: 1.390
  RQ CDKN1A: 1.331
  RQ CDKN1B: 1.039
  RQ CDKN2A: 2.5 and 2.469
  RQ CRK: 1.184
  RQ CTNNB1: 1.131
  RQ CYCS: 2.0 and 1.961
  RQ DVL1: 1.576
  RQ E2F1: 1.631
  RQ EGFR: 1.3 and 1.294
  RQ ELK1: 1.275
  RQ ERBB2: 1.941
  RQ FADD: 0.6 and 0.556
  RQ FAS: 1.496
  RQ FGF2: 1.120
  RQ FN1: 3.8 and 3.841
  RQ FOS: 11.9 and 11.943
  RQ FYN: 2.5 and 2.474
  RQ FZD1: 2.3 and 2.253
  RQ GRB2: 0.961
  RQ GSK3B: 1.191
  RQ GUSB: 4.5
  RQ HRAS: 0.777
  RQ IGF1R: 2.3 and 2.283
  RQ ITGA2B: 3.1 and 3.092
  RQ ITGAV: 1.4 and 1.426
  RQ ITGB1: 0.838
  RQ JUN: 3.7 and 3.708
  RQ KDR: 4.4 and 4.404
  RQ KRAS: 0.886
  RQ MAP2K1: 0.8 and 0.822
  RQ MAP3K5: 0.3 and 0.308
  RQ MAPK1: 1.305
  RQ MAPK3: 2.0 and 2.014
  RQ MAPK8: 1.411
  RQ MAPK14: 1.008
  RQ MAX: 3.6 and 3.614
  RQ MDM2: 0.794
  RQ MYC: 1.065
  RQ NFKB1: 1.288
  RQ NFKB2: 1.340
  RQ NFKBIA: 2.0 and 2.007
  RQ NRAS: 1.178
  RQ PIK3CA: 0.880
  RQ PIK3R1: 2.5 and 2.456
  RQ PTEN: 2.0 and 2.037
  RQ PTK2: 1.6 and 1.561
  RQ PTK2B: 2.3 and 2.270
  RQ RAC1: 1.1 and 1.059
  RQ RAF1: 2.0 and 1.951
  RQ RB1: 1.003
  RQ RELA: 1.390
  RQ RHOA: 1.129
  RQ SHC1: 0.4 and 0.436
  RQ SMAD4: 1.4 and 1.409
  RQ SOS1: 1.2 and 1.161
  RQ SPP1: 2.5
  RQ SRC: 1.584
  RQ TGFB1: 0.911
  RQ TGFBR1: 1.324
  RQ TGFBR2: 2.4 and 2.358
  RQ TP53: 3.5 and 3.478
  RQ VEGFA: 1.664
